According to patent US10533161B2, “NADPH oxidase proteins” (Universite Grenoble Alpes, priority 2014, dated 2020):
“Also recorded” adds a separate entry of the source.

Tests used:
[1] = system: SpNox; assay: NADPH oxidase activity of SpNox by colorimetry (NBT reduction, 96-well plate); type: biochemical, Streptococcus pneumoniae; settings: absorbance at 560 nm, 5 concentrations 0.01-100 μM (DPI 0.005-50 μM), triplicate
Protocol: The oxidase activity is determined by measuring the kinetics of reduction of NBT by the O2.^− ions, by monitoring the increase in absorbance at 560 nm (molar extinction coefficient of NBT: ε560=30 000 mM^−1.cm^−1). It is also possible to use a wavelength of 550 nm SpNox is incubated with a reaction mixture containing the molecule to be tested, NBT, FAD and the protein storage buffer for 5 to 20 min at 25° C. The reaction is then started by adding NADPH.
The NADPH oxidase activity is then quantified at the end point by determining the intensity of the coloration compared to a positive control. The positive control is carried out with the SpNox protein alone, without the molecule to be tested.
The compounds present in each well of the plate are, as final concentration: • 0.1 μg of SpNox; • 2 μM of FAD; • 125 μM of NBT; • 150 μM NADPH; • Molecule A; • SpNox storage buffer q.s. 200 μL.
All the experiments were carried out in triplicate and each molecule was tested at 5 different concentrations. The concentration range is deliberately wide so as to be able to include the possible IC50 values of each molecule. The concentrations selected are: 0.01-0.1-1-10-100 μM.

[2] = system: eukaryotic NOX; settings: commercial molecules targeting the eukaryotic NOX; cited from earlier work

Structure (SMILES) | Effect on the NADPH oxidase activity of SpNox [1] | Property (NADPH oxidase activity of the eukaryotic NOX) [2]
CCCCC/C=C\C/C=C\C/C=C\C/C=C\CCCC(=O)O [Arachidonic acid (AA), Arachidonic acid] | stimulates the production of superoxide; also recorded: activator of SpNox | Activator
Oc1cc(O)c2c(c1)O[C@H](c1ccc(O)c(O)c1)[C@@H](O)C2 [Catechin] | inhibitors of SpNox | Inhibitor
CC1=C(O)C(=O)C=C2C1=CC=C1[C@@]2(C)CC[C@@]2(C)[C@@H]3C[C@](C)(C(=O)O)CC[C@]3(C)CC[C@]12C [Celastrol] | inhibitors of SpNox | Inhibitor
c1ccc2c(c1)[IH]c1ccccc1-2 [DPI, diphenyleneiodonium chloride] | inhibits the reaction; also recorded: inhibitory effect; also recorded: inhibitors of SpNox | Inhibitor
O=c1c2ccccc2[se]n1-c1ccccc1 [Ebselen] | inhibitors of SpNox | Inhibitor
O=C(O[C@@H]1Cc2c(O)cc(O)cc2O[C@@H]1c1ccc(O)c(O)c1)c1cc(O)c(O)c(O)c1 [Epicatechin gallate] | inhibitors of SpNox | Inhibitor
Cc1ccccc1-n1sc2cc(F)ccc2c1=O [Thr101] | inhibitors of SpNox | Inhibitor
c1ccc(Cn2nnc3c(Sc4nc5ccccc5o4)ncnc32)cc1 [VAS2870] |  | Inhibitor
